One data set is described as follows: Phase I dose escalation. It is filed as in vivo.
The test system of the next data set is primary CNS tumor. Put plainly: MR diffusion and permeability perfusion imaging of tumor. The class given is in vivo, human.
Data set [1] concerns progressive glioblastoma multiforme. As to conditions: adults, therapy initiated at 45mg; cited from earlier work.

For `COc1cc2c(Oc3ccc4[nH]c(C)cc4c3F)ncnc2cc1OCCCN1CCCC1` [cediranib, Cediranib], the MTD result in “Phase I dose escalation” (Stratum II (patients receiving EIACD), maximum dose tested 20mg/m^2/d) is listed as “not achieved”. Besides, the DLTs identified in the data set “Phase I dose escalation” (human, in vivo) is recorded as 8. The “change in two dimensional mean permeability values” in the data set with primary CNS tumor (baseline to course 1 day 7–14, p=0.0469) was “suggested a decrease from baseline”. Moreover, the “change in 2D permeability and 3D permeability values” with primary CNS tumor (baseline to end of course 2, p=0.0078 each) is given as “suggested a decrease from baseline”. Further, in data set [1], the 6-month progression-free survival was 26% and the “radiographic response, patients” value is 57%.

The values are drawn from paper PMC4561207 (Child's nervous system : ChNS : official journal of the …, 2015).
